Data taken from US20050152842A1, “Poly (L-glutamic acid) paramagnetic material complex and use as a biodegradable MRI contrast agent” (priority 2003, published 2005).

Key:
[1] = MRI studies of vascular enhancement and intravascular retention in mice; type: in vivo; conditions: dose of 0.1 mmol/kg, intravenous
Protocol: For MRI studies using complexes prepared as described in the earlier examples, mice were anesthetized with 1-2% isoflurane in a 1 L/min O2 flow and place prone within a custom sled. A custom catheter made from 2 Fr silicon tubing and a 27 gauge needle was inserted in the tail vein of the mouse. Gd-DTPA ([…]) or PG-Hex-DTPA-Gd (0.004 mmol Gd/ml, 0.02 mmol Gd/kg) was injected through the catheter and the catheter flushed with normal saline. Two-dimensional coronal section spin-echo images were obtained before and at 2 hours and 24 hours after contrast agent injection using a 2.5 cm quadrature birdcage coil on a 1.5 T Sigma LX MR scanner (GE Medical Systems, WI). Six 1.5 mm contiguous sections were obtained using a 6 cm field-of-view, a 256×192 acquisition matrix and 4 averages. Similar studies were performed with PEG/PG-Hex-DTPA-Gd.
A fast spoiled gradient-echo sequence was used to obtain the data from 8 anatomic sections with 7.1 s temporal resolution. Other acquisition parameters were echo time: 1.4 ms, repetition time: 40 ms, flip angle: 35°, acquisition matrix size: 128×128. […] Such long intravascular retention times are useful for contrast-enhanced MR angiography, for assessment of microvascular volume, and for characterizing changes in permeability of highly “leaky” vasculature. Retention of the contrast in the tumor was also noted in the same time period (FIG. 6B).

[2] = 1.5 Tesla in phosphate-buffered saline; from Unger et al. 1999; cited from earlier work
[3] = target: Cathepsin B (Homo sapiens, UniProt P07858)
Protocol: PG-Hex-BzDTPA-Gd was dissolved in PBS buffer (pH 5) at a concentration of 5.3 mg/ml. Cathepsin B, which is able to degrade the complex, was added to the solution to a final concentration of 10 units/ml. The degradation was monitored at different time intervals using a gel permeation chromatography (GPC) system equipped with an TSK G3000PW column (TosoHaas), a Waters 515 HPLC pump, and a Viscotek E-Z^pro triple detector array. The system was eluted with PBS buffer containing 0.1% LiBr (pH 7.4) at a flow rate of 1 ml/min.

Compound | Vascular enhancement 2 hours after injection [1] | Relaxivity R1 [2] | Time in which the polymer was almost completely degraded [3] | Degradation on incubation with Cathepsin B (in words) ([3]; pH 5)
O=C([O-])CN(CCN(CC(=O)[O-])CC(=O)O)CCN(CC(=O)[O-])CC(=O)O.[Gd+3] [DTPA-Gd] | not detected | 4.1 mM^−1Sec^−1 |  | 
poly(L-glutamic acid) [PG] |  |  | 100 min | rapidly degraded
